The target in experiment [1] is T1, Adenosine deaminase (Bos taurus, UniProt P56658).
T1 sequence (P56658 whole entry): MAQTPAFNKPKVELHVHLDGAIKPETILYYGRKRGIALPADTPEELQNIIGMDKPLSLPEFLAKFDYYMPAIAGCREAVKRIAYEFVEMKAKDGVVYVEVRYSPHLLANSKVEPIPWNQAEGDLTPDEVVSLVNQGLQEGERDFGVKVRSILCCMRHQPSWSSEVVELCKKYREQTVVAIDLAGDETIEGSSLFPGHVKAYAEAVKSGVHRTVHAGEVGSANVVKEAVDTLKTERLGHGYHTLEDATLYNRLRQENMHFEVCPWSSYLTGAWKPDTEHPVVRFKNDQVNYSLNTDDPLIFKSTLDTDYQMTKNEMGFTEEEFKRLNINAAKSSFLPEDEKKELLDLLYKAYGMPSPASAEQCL
Briefly: In vitro inhibition of adenosine deaminase in calf intestinal mucosa. Type of experiment: tissue-based.

The target of experiment [2] is T2, Adenosine deaminase (Homo sapiens, UniProt P00813).
T2 sequence (P00813 whole entry): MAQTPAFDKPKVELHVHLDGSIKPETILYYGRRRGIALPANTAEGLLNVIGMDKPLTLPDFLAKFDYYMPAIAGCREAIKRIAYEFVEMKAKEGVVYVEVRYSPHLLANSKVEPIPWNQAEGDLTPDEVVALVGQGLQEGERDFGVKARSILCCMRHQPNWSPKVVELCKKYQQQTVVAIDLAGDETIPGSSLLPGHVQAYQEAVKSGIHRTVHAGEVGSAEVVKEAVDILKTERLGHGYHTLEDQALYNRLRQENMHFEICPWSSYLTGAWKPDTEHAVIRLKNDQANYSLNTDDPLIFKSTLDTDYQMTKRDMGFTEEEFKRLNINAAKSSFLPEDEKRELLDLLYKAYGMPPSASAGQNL
Briefly: The compound was tested in vitro for inhibition of human erythrocytic adenosine deaminase.

With `CC1=NC[C@@H](O)c2ncn([C@H]3C[C@H](O)[C@@H](CO)O3)c2N1`, the Ki – broadly, the equilibrium dissociation constant of an inhibitor or competing ligand from its target – on Adenosine deaminase [1] stood at 16 nM.

In turn, `OCCOCn1cnc2c1NC=NCC2O` (stereo not drawn) registered a Ki at Adenosine deaminase [1] of 98 nM. At Adenosine deaminase [2], `OC[C@H]1O[C@@H](n2cnc3c2N=CNC[C@H]3O)[C@H](O)[C@@H]1O` [COFORMYCIN] came in with a Ki of 0.01 nM. This lies in the picomolar range.

For the origin of these results see ChEMBL document CHEMBL1122374 (J Med Chem, 1983).
